Where two headings read alike, the source gives them in different places.
Assays:
[1] = Ligand charge of maytansinoid conjugates; type: physicochemical
human SSTR2 = human SSTR2 (Homo sapiens, UniProt P30874); experiment: Radioligand-receptor binding assay, [125I] somatostatin, membranes from SSTR2 expressing CHO-K1 cells
Protocol: These conjugates were also assessed in an in vitro assay evaluating binding to the somatostatin receptor 2 (SSTR2). A radioligand-receptor binding assay was conducted at Eurofins Panlabs (Taiwan) to determine the affinity of conjugates described herein to the SSTR2. The assay measures binding of radiolabeled ligand, [^125I] labeled somatostatin, to human SSTR2 using membrane preparations from SSTR2 expressing CHO-K1 cells. Membranes were incubated with radiolabeled somatostatin (0.03 nM) in the presence of conjugate/compound starting at a dose of 10 uM using 6× serial dilutions to obtain a 10-pt curve. After a four hour incubation, membranes were filtered and washed 3× and counted to determine the remaining [^125I] somatostatin bound to the receptor. IC50 values were determined by a non-linear, least squares regression analysis using MathIQ™ (ID Business Solutions Ltd., UK).

[2] = test system: NCI-H524 (ATCC) human lung cancer cells; type: cell-based
Protocol: FIG. 1 is a graph of various conjugates represented as bars and showing on the Y-axis their activity in an H524 proliferation assay with and without competition by octreotide. […] This illustrates the suprprising finding that only maytansinoid conjugates show activity that is dependent on the receptor.
Conjugates were assessed in an in vitro assay evaluating inhibition of cell proliferation. NCI-H524 (ATCC) human lung cancer cells were plated in 96 well, V-bottomed plates (Costar) at a concentration of 5,000 cells/well and 24 hours later were treated with compound for 6 hours and further incubated 66 hours. Compound starting dose was 20 μM and three fold serial dilutions were done for a total of ten points. After 6 hours of treatment, cells were spun down, the drug containing media was removed, and fresh complete medium was added and used to resuspend the cells, which were spun again. After removal of the wash media, the cells were resuspended in complete medium, then transferred into white walled, flat bottomed 96 well plates. […] Proliferation was measured using CellTiter Glo reagent using the standard protocol (Promega) and a Glomax multi+detection system (Promega). Percent proliferation inhibition was calculated using the following formula: % inhibition=(control-treatment)/control*100. Control is defined as vehicle alone. IC50 curves were generated using the nonlinear regression analysis (four parameter) with GraphPad Prism 6.
Conjugates were tested for their activity dependence on the somatostatin receptor. Active agent Z in the conjugate was selected from auristatin, carbazitaxel, DM1, doxorubicin, platinum, SN-38 and vinblastine. Active agent Z is connected to octreotide with various linkers. Proliferation IC50 values of the conjugates were measured. Proliferation IC50 values of the conjugates without octreotide competition were also measured. The ratio of IC50 with octreotide competition and IC50 without octreotide competition is an indicator of whether activity is at least particially dependent on bind to the somatostatin receptor. […] Therefore, the activity of conjugates comprising DM1 is dependent on the binding to the somatostatin receptor.

[3] = read-out: H524 IC50 6 h, 6 hours treatment, further 66 hours incubation
[4] = read-out: H524 IC50 with 100 μM octreotide 6 h, with 100 μM octreotide competition, 6 h treatment

Sequence of human SSTR2 (P30874 whole entry): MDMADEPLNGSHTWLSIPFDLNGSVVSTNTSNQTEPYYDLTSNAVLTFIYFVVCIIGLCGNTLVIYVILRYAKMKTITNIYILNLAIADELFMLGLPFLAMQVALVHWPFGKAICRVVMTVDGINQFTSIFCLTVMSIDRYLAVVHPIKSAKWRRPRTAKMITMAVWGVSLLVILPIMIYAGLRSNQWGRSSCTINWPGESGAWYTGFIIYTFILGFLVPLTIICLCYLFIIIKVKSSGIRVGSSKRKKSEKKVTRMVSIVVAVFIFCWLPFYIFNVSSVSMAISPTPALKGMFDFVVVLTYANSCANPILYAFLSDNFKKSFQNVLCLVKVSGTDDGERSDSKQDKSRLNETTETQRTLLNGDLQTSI

Row | SMILES | Ligand charge [1] | Ki (human SSTR2) | IC50 [2, 3] | IC50 [2, 4]
1 | COc1cc2cc(c1Cl)N(C)C(=O)C[C@H](OC(=O)[C@H](C)N(C)C(=O)CCSSC(C)(C)[C@H](NC(=O)CC[C@H](NC(=O)[C@@H]1CSSC[C@H](NC(=O)[C@H](N)Cc3ccccc3)C(=O)N[C@@H](Cc3ccc(O)cc3)C(=O)N[C@H](Cc3c[nH]c4ccccc34)C(=O)N[C@@H](CCCCN)C(=O)N[C@@H]([C@@H](C)O)C(=O)N1)C(N)=O)C(N)=O)[C@]1(C)O[C@H]1[C@H](C)[C@@H]1C[C@@](O)(NC(=O)O1)[C@H](OC)/C=C/C=C(\C)C2 [Conjugate 18] | +2 | 0.18 nM | 19 nM | 353 nM
2 | COc1cc2cc(c1Cl)N(C)C(=O)C[C@H](OC(=O)[C@H](C)N(C)C(=O)CCSSC[C@H](NC(=O)[C@@H]1CSSC[C@H](NC(=O)[C@@H](Cc3ccccc3)NC(=O)NC3CCCCC3)C(=O)N[C@@H](Cc3ccc(O)cc3)C(=O)N[C@H](Cc3c[nH]c4ccccc34)C(=O)N[C@@H](CCCCN)C(=O)N[C@@H]([C@@H](C)O)C(=O)N1)C(=O)NCc1ccccc1)[C@]1(C)O[C@H]1[C@H](C)[C@@H]1C[C@@](O)(NC(=O)O1)[C@H](OC)/C=C/C=C(\C)C2 [Conjugate 26] | +1 | 1.42 nM | 30 nM | 106 nM
3 | COc1cc2cc(c1Cl)N(C)C(=O)C[C@H](OC(=O)[C@H](C)N(C)C(=O)CCSSC[C@H](NC(=O)[C@@H]1CSSC[C@H](NC(=O)[C@@H](Cc3ccccc3)NC(C)=O)C(=O)N[C@@H](Cc3ccc(O)cc3)C(=O)N[C@H](Cc3c[nH]c4ccccc34)C(=O)N[C@@H](CCCCN)C(=O)N[C@@H]([C@@H](C)O)C(=O)N1)C(N)=O)[C@]1(C)O[C@H]1[C@H](C)[C@@H]1C[C@@](O)(NC(=O)O1)[C@H](OC)/C=C/C=C(\C)C2 [Conjugate 27] | +1 | 0.15 nM | 17 nM | 49 nM
4 | COc1cc2cc(c1Cl)N(C)C(=O)C[C@H](OC(=O)[C@H](C)N(C)C(=O)CCSSC[C@H](NC(=O)[C@@H]1CSSC[C@H](NC(=O)[C@@H](Cc3ccccc3)NC(=O)C(F)(F)F)C(=O)N[C@@H](Cc3ccc(O)cc3)C(=O)N[C@H](Cc3c[nH]c4ccccc34)C(=O)N[C@@H](CCCCN)C(=O)N[C@@H]([C@@H](C)O)C(=O)N1)C(N)=O)[C@]1(C)O[C@H]1[C@H](C)[C@@H]1C[C@@](O)(NC(=O)O1)[C@H](OC)/C=C/C=C(\C)C2 [Conjugate 29] | +1 | 0.23 nM | 5.7 nM | 28 nM
5 | COc1cc2cc(c1Cl)N(C)C(=O)C[C@H](OC(=O)[C@H](C)N(C)C(=O)CCSSC[C@@H](NC(=O)[C@@H]1CSSC[C@H](NC(=O)[C@@H](Cc3ccccc3)NC(=O)C(F)(F)F)C(=O)N[C@@H](Cc3ccc(O)cc3)C(=O)N[C@H](Cc3c[nH]c4ccccc34)C(=O)N[C@@H](CCCCN)C(=O)N[C@@H]([C@@H](C)O)C(=O)N1)C(N)=O)[C@]1(C)O[C@H]1[C@H](C)[C@@H]1C[C@@](O)(NC(=O)O1)[C@H](OC)/C=C/C=C(\C)C2 [Conjugate 32] | +1 | 0.82 nM | 33 nM | 98 nM
6 | COC(=O)N[C@H](Cc1ccccc1)C(=O)N[C@H]1CSSC[C@@H](C(=O)N[C@@H](CSSCCC(=O)N(C)[C@@H](C)C(=O)O[C@H]2CC(=O)N(C)c3cc(cc(OC)c3Cl)C/C(C)=C/C=C/[C@@H](OC)[C@@]3(O)C[C@H](OC(=O)N3)[C@@H](C)[C@@H]3O[C@@]23C)C(N)=O)NC(=O)[C@H]([C@@H](C)O)NC(=O)[C@H](CCCCN)NC(=O)[C@@H](Cc2c[nH]c3ccccc23)NC(=O)[C@H](Cc2ccc(O)cc2)NC1=O [Conjugate 35] | +1 | 0.024 nM | 27 nM | 17 nM
7 | CCNC(=O)N[C@H](Cc1ccccc1)C(=O)N[C@H]1CSSC[C@@H](C(=O)N[C@@H](CSSCCC(=O)N(C)[C@@H](C)C(=O)O[C@H]2CC(=O)N(C)c3cc(cc(OC)c3Cl)C/C(C)=C/C=C/[C@@H](OC)[C@@]3(O)C[C@H](OC(=O)N3)[C@@H](C)[C@@H]3O[C@@]23C)C(N)=O)NC(=O)[C@H]([C@@H](C)O)NC(=O)[C@H](CCCCN)NC(=O)[C@@H](Cc2c[nH]c3ccccc23)NC(=O)[C@H](Cc2ccc(O)cc2)NC1=O [Conjugate 39] | +1 | 0.07 nM | 1.3 nM | 12 nM
8 | COc1cc2cc(c1Cl)N(C)C(=O)C[C@H](OC(=O)[C@H](C)N(C)C(=O)CCSSC[C@H](NC(=O)[C@@H]1CSSC[C@H](NC(=O)[C@@H](Cc3ccccc3)NCc3ccccc3)C(=O)N[C@@H](Cc3ccc(O)cc3)C(=O)N[C@H](Cc3c[nH]c4ccccc34)C(=O)N[C@@H](CCCCN)C(=O)N[C@@H]([C@@H](C)O)C(=O)N1)C(N)=O)[C@]1(C)O[C@H]1[C@H](C)[C@@H]1C[C@@](O)(NC(=O)O1)[C@H](OC)/C=C/C=C(\C)C2 [Conjugate 43] | +2 | 0.075 nM | 7.2 nM | 20 nM
9 | COc1cc2cc(c1Cl)N(C)C(=O)C[C@H](OC(=O)[C@H](C)N(C)C(=O)CCSSC[C@H](NC(C)=O)C(=O)NC[C@H](NC(=O)[C@@H]1CSSC[C@H](NC(=O)[C@H](N)Cc3ccccc3)C(=O)N[C@@H](Cc3ccc(O)cc3)C(=O)N[C@H](Cc3c[nH]c4ccccc34)C(=O)N[C@@H](CCCCN)C(=O)N[C@@H]([C@@H](C)O)C(=O)N1)C(N)=O)[C@]1(C)O[C@H]1[C@H](C)[C@@H]1C[C@@](O)(NC(=O)O1)[C@H](OC)/C=C/C=C(\C)C2 [Conjugate 45] | +2 | 0.049 nM | 1.3 nM | 154 nM
10 | COc1cc2cc(c1Cl)N(C)C(=O)C[C@H](OC(=O)[C@H](C)N(C)C(=O)CCSSC[C@H](NC(=O)CC[C@H](NC(=O)[C@@H]1CSSC[C@H](NC(=O)[C@H](N)Cc3ccccc3)C(=O)N[C@@H](Cc3ccc(O)cc3)C(=O)N[C@H](Cc3c[nH]c4ccccc34)C(=O)N[C@@H](CCCCN)C(=O)N[C@@H]([C@@H](C)O)C(=O)N1)C(N)=O)C(N)=O)[C@]1(C)O[C@H]1[C@H](C)[C@@H]1C[C@@](O)(NC(=O)O1)[C@H](OC)/C=C/C=C(\C)C2 [Conjugate 46] | +2 | 0.045 nM | 0.3 nM | 195 nM
11 | COc1cc2cc(c1Cl)N(C)C(=O)C[C@H](OC(=O)[C@H](C)N(C)C(=O)CCSSCCNC(=O)CC[C@H](NC(=O)[C@@H]1CSSC[C@H](NC(=O)[C@H](N)Cc3ccccc3)C(=O)N[C@@H](Cc3ccc(O)cc3)C(=O)N[C@H](Cc3c[nH]c4ccccc34)C(=O)N[C@@H](CCCCN)C(=O)N[C@@H]([C@@H](C)O)C(=O)N1)C(N)=O)[C@]1(C)O[C@H]1[C@H](C)[C@@H]1C[C@@](O)(NC(=O)O1)[C@H](OC)/C=C/C=C(\C)C2 [Conjugate 47] | +2 | 0.072 nM | 0.7 nM | 210 nM
12 | COc1cc2cc(c1Cl)N(C)C(=O)C[C@H](OC(=O)[C@H](C)N(C)C(=O)CCSC1CC(=O)N(CCCNC(=O)CC[C@H](NC(=O)[C@@H]3CSSC[C@H](NC(=O)[C@H](N)Cc4ccccc4)C(=O)N[C@@H](Cc4ccc(O)cc4)C(=O)N[C@H](Cc4c[nH]c5ccccc45)C(=O)N[C@@H](CCCCN)C(=O)N[C@@H]([C@@H](C)O)C(=O)N3)C(N)=O)C1=O)[C@]1(C)O[C@H]1[C@H](C)[C@@H]1C[C@@](O)(NC(=O)O1)[C@H](OC)/C=C/C=C(\C)C2 (stereo partly shown) [Conjugate 48] | +2 | 0.21 nM | 9 nM | 157 nM
13 | COc1cc2cc(c1Cl)N(C)C(=O)C[C@H](OC(=O)[C@H](C)N(C)C(=O)CCSSC(C)(C)[C@H](NC(=O)[C@@H]1CSSC[C@H](NC(=O)[C@H](N)Cc3ccccc3)C(=O)N[C@@H](Cc3ccc(O)cc3)C(=O)N[C@H](Cc3c[nH]c4ccccc34)C(=O)N[C@@H](CCCCNC(=O)[C@@H](NC(=O)[C@@H](N)C(C)C)C(C)C)C(=O)N[C@@H]([C@@H](C)O)C(=O)N1)C(N)=O)[C@]1(C)O[C@H]1[C@H](C)[C@@H]1C[C@@](O)(NC(=O)O1)[C@H](OC)/C=C/C=C(\C)C2 [Conjugate 58] | +2 | 3980 nM | 90 nM | 250 nM

Source: patent US20190125888A1, “TARGETED CONJUGATES AND PARTICLES AND FORMULATIONS THEREOF” (priority 2015, published 2019)
